Measurements published in patent publication US6759522B2, “Sulforhamnosylacyglycerol derivatives and use thereof as medicaments” (Toyo Suisan Kaisha, Ltd., priority 1999, dated 2004).
Where a name gives a salt, the structure may show the parent alone.

Legend:
DNA polymerase β = target: T1, DNA polymerase β (Rattus norvegicus, UniProt P06766); assay: Assay 2: inhibitory effect against DNA polymerase β ([3H]-dTTP incorporation); assay type: biochemical; settings: for inhibitory effect against the DNA polymerase β (in words): at the tested concentrations, summary of Table 2; for IC50: recombinant rat DNA polymerase β, 0.05 U, 37° C., 60 minutes
T1 construct: made in house; host or cells: E. coli
Procedure: (§1) Each mixture was added with a buffer containing inorganic salts for the enzymatic reaction, [^3H]-labeled dTTP and compounds for reaction containing a template DNA strand, and incubated at 37° C. for 60 minutes.
(§2) After the enzymatic reaction was quenched, the resultant reaction product was fixed on a dedicated filter and subjected to measurement by a liquid scintillation counter. The amount of enzymatically incorporated dTTP was calculated as a radiation dose (cpm) of [^3H]. Note that, each of the sulforhamnosylacylglycerol derivatives is a mixture of the S- and R-configurations with respect to an absolute configuration of the carbon of the 2-position of the glycerol moiety.
An assay on inhibitory effect against a DNA polymerase β was carried out in the following manner.
The same procedure as in Assay 1 was carried out except that 0.05 U of DNA polymerase β was used in place of the DNA polymerase α. The DNA polymerase β was prepared from recombinant E. coli introduced with rat DNA polymerase β gene. In this way, the inhibitory effect of test compounds (SRAG1, SRAG2 and SRAG3 shown in Table 1 and dissolved in DMSO) against DNA polymerase : was assayed.

DNA polymerase α = target: T2, DNA polymerase α (Bos taurus, UniProt A0AAA9TD94); assay: Assay 1: inhibitory effect against DNA polymerase α ([3H]-dTTP incorporation); assay type: biochemical; settings: DNA polymerase α from bovine thymus, 0.05 U, 37° C., 60 minutes
T2 construct: from tissue; host or cells: bovine thymus
T2 sequence (A0AAA9TD94 1-1441): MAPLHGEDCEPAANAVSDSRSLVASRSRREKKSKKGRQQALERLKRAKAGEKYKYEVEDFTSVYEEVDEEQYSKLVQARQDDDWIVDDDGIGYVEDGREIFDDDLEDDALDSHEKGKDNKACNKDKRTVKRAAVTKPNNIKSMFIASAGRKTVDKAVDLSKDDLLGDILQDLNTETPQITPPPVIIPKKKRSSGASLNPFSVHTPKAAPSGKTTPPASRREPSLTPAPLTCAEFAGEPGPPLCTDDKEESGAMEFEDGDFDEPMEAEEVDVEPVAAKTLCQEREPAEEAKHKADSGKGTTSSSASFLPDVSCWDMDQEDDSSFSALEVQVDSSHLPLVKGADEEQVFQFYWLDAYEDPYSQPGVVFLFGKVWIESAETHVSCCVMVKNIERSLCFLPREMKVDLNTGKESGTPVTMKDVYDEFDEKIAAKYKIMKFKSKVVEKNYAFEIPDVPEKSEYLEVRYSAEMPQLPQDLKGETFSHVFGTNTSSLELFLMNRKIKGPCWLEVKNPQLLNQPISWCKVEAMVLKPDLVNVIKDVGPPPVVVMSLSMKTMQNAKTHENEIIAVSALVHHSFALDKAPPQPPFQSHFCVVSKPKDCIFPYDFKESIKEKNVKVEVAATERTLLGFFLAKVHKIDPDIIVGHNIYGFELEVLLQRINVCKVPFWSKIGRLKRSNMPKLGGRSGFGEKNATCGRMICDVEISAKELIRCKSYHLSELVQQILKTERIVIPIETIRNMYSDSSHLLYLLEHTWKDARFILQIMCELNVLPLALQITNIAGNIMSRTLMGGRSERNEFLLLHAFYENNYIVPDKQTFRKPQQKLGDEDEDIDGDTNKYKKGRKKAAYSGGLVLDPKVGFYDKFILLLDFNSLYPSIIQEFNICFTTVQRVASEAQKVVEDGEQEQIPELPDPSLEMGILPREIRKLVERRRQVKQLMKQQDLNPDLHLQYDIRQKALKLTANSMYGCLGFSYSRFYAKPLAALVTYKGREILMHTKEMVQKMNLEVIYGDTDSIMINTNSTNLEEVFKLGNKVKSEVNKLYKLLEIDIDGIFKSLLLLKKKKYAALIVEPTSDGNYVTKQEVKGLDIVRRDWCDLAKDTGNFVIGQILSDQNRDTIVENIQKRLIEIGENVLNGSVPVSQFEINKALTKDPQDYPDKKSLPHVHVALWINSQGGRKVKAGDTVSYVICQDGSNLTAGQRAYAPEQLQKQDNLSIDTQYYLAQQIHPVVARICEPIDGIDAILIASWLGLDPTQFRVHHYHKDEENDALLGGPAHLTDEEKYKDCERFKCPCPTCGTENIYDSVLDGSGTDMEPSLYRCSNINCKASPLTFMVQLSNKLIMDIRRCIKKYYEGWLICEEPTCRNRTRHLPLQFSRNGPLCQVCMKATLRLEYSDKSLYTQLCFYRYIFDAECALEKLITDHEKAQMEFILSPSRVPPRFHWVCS
Procedure: An assay on inhibitory effect against a DNA polymerase α was carried out in the following manner.
as §1, §2

Colon cancer cells DLD-1 = assay: Assay 3: anticancer activity against cultured colon cancer cells (MTT assay); assay type: cell-based; settings: Homo sapiens, DLD-1, 48 hour cultivation
Procedure: An assay on anticancer activity against cultured colon cancer cells was carried out in the following manner.
(§3) Colon cancer cells DLD-1 were maintained and subcultured in RPMI 1640 medium (containing 10% calf serum). Each of the test compounds (SRAG1 to SRAG3 shown in Table 1) was suspended and diluted in the medium, and then the cancer cells were cultivated together with the medium in a 96-well plate at 3×10^3 cells/well. After 48 hour cultivation, the MTT assay (Mosmann, T: Journal of Immunological Method, 65, 55-63 (1983)) was carried out to compare survival rates.

[1] = tested on: gastric cancer cells NUGC-3; assay: Assay 4: anticancer activity against cultured gastric cancer cells (MTT assay); assay type: cell-based; settings: Homo sapiens, NUGC-3, 48 hour cultivation
Procedure: as §3
An assay on anticancer activity against cultured gastric cancer cells was carried out in the same manner as in the assay 3 except that gastric cancer cells NUGC-3 were used instead of the colon cancer cells DLD-1.

| inhibitory effect against the DNA polymerase β (in words) (DNA polymerase β) | IC50 (DNA polymerase β) | IC50 (Colon cancer cells DLD-1) | IC50 [1] | Compound | IC50 (DNA polymerase α) |
| --- | --- | --- | --- | --- | --- |
| did not show an inhibitory effect | > 90.8 µM | 42.5 µg/mL | 45 µg/mL | CCCCCCCCCCCCCC(=O)OCC(O)CO[C@H]1O[C@H](CS(=O)(=O)[O-])[C@@H](O)[C@H](O)[C@@H]1O.[Na+] (stereo partly drawn) [SRAG1, 3-O-(6-deoxy-6-sulfo-α-D-mannopyranosyl)-1-O-myristoyl-glycerol sodium salt] | 23.6 µM |
| significant inhibitory activity | 28.7 µM | 30 µg/mL | 40 µg/mL | CCCCCCCCCCCCCCCC(=O)OCC(O)CO[C@H]1O[C@H](CS(=O)(=O)[O-])[C@@H](O)[C@H](O)[C@@H]1O.[Na+] (stereo partly drawn) [SRAG2, 3-O-(6-deoxy-6-sulfo-α-D-mannopyranosyl)-1-O-palmitoyl-glycerol sodium salt] | 5.7 µM |
| significant inhibitory activity | 11.1 µM | 14 µg/mL | 28.5 µg/mL | CCCCCCCCCCCCCCCCCC(=O)OCC(O)CO[C@H]1O[C@H](CS(=O)(=O)[O-])[C@@H](O)[C@H](O)[C@@H]1O.[Na+] (stereo partly drawn) [SRAG3, 3-O-(6-deoxy-6-sulfo-α-D-mannopyranosyl)-1-O-stearoyl-glycerol sodium salt] | 3.3 µM |
|  |  |  |  | CCCCCCCCCCCCCCCCCC(=O)OCC(CO[C@H]1O[C@H](CS(=O)(=O)O)[C@@H](O)[C@H](O)[C@@H]1O)OC(=O)CCCCCCCCCCCCCCCCC (stereo partly drawn) [SRAG4, 3-O-(6-deoxy-6-sulfo-α-D-mannopyranosyl)-1,2-di-O-stearoyl-glycerol sodium salt] | 0.115 µM |
